In experiment [1] the test system is NIH-3T3 cells expressing RIPK3-2xFv. Kind of experiment: AP1-induced RIPK3 oligomerization cell death, IncuCyte imaging. The conditions noted are these: AP1; zVAD 50 μM, Nec1 30 μM. Type of experiment: cell-based, murine. From the text:
(§1) Consequently, two Fv domains were attached to the C-terminus of RIPK3, creating a RIPK3-2xFv construct, with the goal of promoting AP1-induced crosslinking and oligomerization independent of the RHIM domain. See, FIG. 12A. […] Compare, FIGS. 16A and 15A, respectively. […] Cells expressing this RHIM-deficient RIPK3^ΔC-2xFv construct were nonresponsive to TNF+zVAD, previously reported to be dependent on RIPK1 RHIM/RIPK3 RHIM interactions. See, FIG. 13G. […] See, FIG. 16C and FIG. 16D, respectively. […] See, FIG. 16E. […] See, FIG. 16F.
(§2) Cell death assays were carried out using a 2-color IncuCyte Zoom in-incubator imaging system (Essen Biosciences.) Briefly, this system allows fully automated imaging of cells at set intervals in phase contrast as well as both red and green fluorescent channels. Cell death assays were carried out by treating cells with death-inducing compounds in 24 well tissue culture vessels (100,000 cells/well), in the presence of 100 nM of the cell-impermeable DNA binding fluorescent dyes Sytox Green (Life Technologies 57020) or Yoyo-3 (Y3606), which are excluded from healthy cells but rapidly enter dying cells upon membrane permeabilization, in a manner analogous to propidium iodide.
(§3) Resulting images were analyzed using the software package supplied with the IncuCyte imager, which allows precise analysis of the number of Sytox Green or Yoyo-3 positive cells present in each image. For each experiment, a minimum of three separate wells were treated with each experimental condition, and a minimum of 4 image fields were assessed per well. Percent cell death was calculated by treating a minimum of three distinct wells in each experiment with 100 nM of the cell permeable fluorescent dye Syto Green (S7559), which allows quantification of the total number of cells present in each field. Dead cell events acquired via Sytox Green or Yoyo-3 staining were divided by this total cell number to yield percent cell death at each timepoint. Error bars represent standard deviation from the mean of a minimum of three independent wells. Each result depicted is representative of at least 4 distinct experiments, each of which contained at least 3 technical replicates.

In experiment [2] the test system is NIH-3T3 cells expressing RIPK3^ΔC-2xFv. The experiment is described as above. The format is cell-based, murine. The conditions noted are these: zVAD 50 μM, Nec1 30 μM.
From the text: as §1, §2, §3

In experiment [3] the test system is NIH-3T3 cells stably expressing RIPK3-1xFv. Kind of experiment: TNF-induced necroptosis, IncuCyte imaging. Type of experiment: cell-based, murine. The conditions noted are these: recombinant TNF with zVAD; Nec1 30 μM, TNFR1-Fc 200 ng/ml. How it is done: Expression of RIPK3-1xFv sensitized these cells to necroptosis induced by the combination of TNF and a caspase inhibitor (zVAD) in a manner analogous to that observed in Jax cells, a murine fibroblast line that expresses endogenous RIPK3. See, FIG. 13C. […]
(§4) Resulting images were analyzed using the software package supplied with the IncuCyte imager, which allows precise analysis of the number of Sytox Green or Yoyo-3 positive cells present in each image. For each experiment, a minimum of three separate wells were treated with each experimental condition, and a minimum of 4 image fields were assessed per well. Percent cell death was calculated by treating a minimum of three distinct wells in each experiment with 100 nM of the cell permeable fluorescent dye Syto Green (S7559), which allows quantification of the total number of cells present in each field. […]

Experiment [4] concerns NIH-3T3 cells stably expressing DD-RIPK3. Kind of experiment: Cell death of DD-RIPK3 cells, IncuCyte bioimager. Type of experiment: cell-based, murine. The conditions noted are these: 1 μM Shield drug.
From the text: Chimeric proteins composed of RIPK3 fused to the destabilization domain (DD)(31a) were created via recombinant PCR, to produce a fragment composed of an N-terminal FLAG tag followed by the destabilization domain, then full-length murine RIPK3 or RIPK3^K51A. These constructs were cloned into the pRRL lentiviral vector downstream of an MND promoter, and upstream of a T2A-GFP-T2A-Puromycin resistance cassette. Thus, cells transduced with these vectors produce FLAG-DD-RIPK3, GFP, and the puromycin resistance marker as separate proteins from a single mRNA, and both DD-RIPK3 and GFP carry a C terminal 2A epitope. These constructs were expressed in NIH-3T3 cells via standard helper12 dependent lentiviral transduction, and resulting cells were selected in 2 μg/ml puromycin. […]
as §4

In experiment [5] the test system is RIPK3 necrosome complex (RIPK1, caspase-8). Kind of experiment: Anti-FLAG immunoprecipitation of necrosome complexes. The conditions noted are these: RIPK3-1xFv, AP1 30 minutes; zVAD 50 μM, Nec1 30 μM. Type of experiment: cell-based, murine. How it is done:
Immunoprecipitation of necrosome complexes were carried out using rabbit anti-FLAG antibodies, and TruBlot IP reagents (Rockland Immunochemicals) to eliminate non-specific signals from immunoglobulin heavy and light chains. Briefly, cell lines were treated as indicated and lysed in NP40 buffer (30 mM Tris, 150 mM NaCl, and 1% NP40) supplemented with protease inhibitors. Twenty micrograms of each sample were reserved for “input,” while 500 μg of total protein from each sample were immunoprecipitated with 0.5 μg antibody conjugated to 30 μL TruBlot anti-Rabbit IgG beads Immunocomplexes were washed 4 times in NP40 buffer, eluted by boiling, then run on western blot. Western blots were analyzed using standard primary antibodies, but TruBlot anti-Rabbit and anti-Mouse HRP-conjugated 14 secondary antibodies were used. A standard anti-Rat-HRP secondary was used to detect caspase-8.

The test system of experiment [6] is EμMyc+p53^ΔPP/wt tumor-bearing animals. Type of experiment: in vivo, mice. The conditions noted are these: 200 μg zVAD-fmk with 10 μg anti-CD95, intravenously once/day for 5 days.
Procedure: EμMyc+p53^ΔPP/wt tumor-bearing animals were injected intravenously once/day for 5 days starting at P35 with 10 μg of the antagonist anti-CD95 Jot antibody and 200 μg of zVAD-fmk or vehicle control. Tumor size was monitored by ultrasound of the thymus, where volume was calculated from 3D reconstructions of the scanned tumors.
In a pilot experiment, mice with detectable tumors at 5 weeks (determined by ultrasound, and characteristic of this lymphoma) were given a short course (5 days) of agonistic anti-CD95 (Jo2) and zVAD-fmk (FIG. 11). […] Controls using zVAD-fmk alone are also included.

Peptide text beside a SMILES is read from it. * marks the point of attachment. Cbz = O=C(OCc1ccccc1)*; CH2F = FC*

As for `CN1C(=O)C(Cc2c[nH]c3ccccc23)NC1=S` (stereo not shown) [necrostatin-1, Necrostatin-1], the “effect of inhibitor on magnitude or kinetics of cell death” value in experiment [1] and in experiment [2] was “did not alter magnitude or kinetics of cell death” in each case. The “effect on TNF-induced necroptosis” value in experiment [3] is “blocks”. The “effect of Nec1 on cell death after RIPK1 siRNA-mediated knockdown” value in experiment [4] (30 μM Nec1, RIPK1 siRNA) is “eliminated”. Also, the “effect on cell death triggered by RIPK3 accumulation” value in experiment [4] (no exogenous TNF, TNFR-Fc 200 ng/ml, Nec1 30 μM) is “decreased cell death”. In experiment [5], the “effect of inhibitor on association of RIPK1 and caspase-8 with the RIPK3 complex” value was “eliminated formation of stable RIPK1- and caspase-8 containing complexes”.
Turning to `COC(=O)C[C@H](NC(=O)[C@H](C)NC(=O)[C@@H](NC(=O)OCc1ccccc1)C(C)C)C(=O)CF` [zVAD] (Cbz-Val-Ala-Asp(OMe)-CH2F), the “effect of inhibitor on magnitude or kinetics of cell death” value in experiment [1] and in experiment [2] was “did not alter magnitude or kinetics of cell death” each time. For the same molecule, the “protection from the lethal effects of anti-CD95 in vivo” value in experiment [6] is given as “completely protected”. In addition, in experiment [5], the “effect of inhibitor on association of RIPK1 and caspase-8 with the RIPK3 complex” value is listed as “increased association of these proteins”.

(Values after patent publication US20160160189A1, “Truncated Constructs of RIPK3 and Related Uses” (ST. JUDE CHILDREN'S RESEARCH HOSPITAL, priority 2013, published 2016).)
